# Data: patent US12685728B2, “Anti-vertigo compound and pharmaceutical compositions thereof” (Amneal Pharmaceuticals LLC, priority 2020, dated 2026)
# Key:
# [1] = doses up to 450-fold higher than the therapeutic doses; cited from earlier work
# [2] = tested on: patients with Peripheral vertigo; assay: Same clinical trial: composite score of vegetative concomitant symptoms (nausea, vomiting, sweating, tachycardia), 5-point VAS; type: in vivo, human
# Source text: (§1) The current study was designed as an open label, two-treatment arm, active comparator controlled, Clinical trial in patients with Peripheral vertigo. This study involved a screening phase, randomization and treatment phase as mentioned below: • Screening phase (Visit 1): −14 to −1 day • Baseline visit and day of randomization (Visit 2): Day 0/1 • Treatment phase: Day 1 to Day 28 • End of treatment (Visit 4): Day 29±2 days
# (§2) Patients with Peripheral vertigo, meeting the mentioned eligibility criteria were identified and shortlisted patients underwent screening within 14 days prior to randomization. A total of 16 patients were randomized in the ratio of 3:1 to receive the test and active comparator products (12 patients received test product and 4 patients received active comparator product). Test product was consumed as 20 mg Levocloperastine orally three times a day for 28 days. Active comparator (standard of care) was consumed by the patients as per the investigator's sole discretion and medical judgement. The standard of care treatment included Betahistine 16 mg tablets three times daily OR Betahistine 16 mg tablets three times daily plus Acetazolamide 125 mg tablets two time daily OR Cinnarizine 25 mg tablets three times daily which was given to patient.
# Additionally, mean change in composite score of vegetative concomitant symptoms from baseline score was compared between two treatment arms. The absolute data and mean changes from baseline data are presented below in Table 2.
# [3] = tested on: patients with Peripheral vertigo; assay: Open label, active comparator controlled clinical trial: MVS score (severity of vertigo symptoms); type: in vivo, human
# Source text: The MVS score, a 12-item composite score to measure the severity of vertigo symptoms, is defined as the mean intensity of 6 (unprovoked) vertigo symptoms (dysstasia and walking unsteadiness, staggering, rotary sensation, tendency to fall, lift sensation, blackout) and vertigo in consequence of 6 triggering factors [change of position (lying), bowing, getting up, driving by car/train, head movements (inclination, twist), eye movement]. The intensity of each of the 12 single symptoms is rated by the patients by means of a 5-point VAS (0=not present, 1=moderate, 2=medium, 3=strong, 4=very strong). A mean MVS serving as a measure of vertigo intensity, will be calculated by adding the scores on all 12 vertigo symptoms and dividing by 12. The scale is rated by patients directly.
# as §1, §2
# MVS Score: Mean change in MVS score from baseline score was compared between two treatment arms.
# [4] = tested on: patients with Peripheral vertigo; assay: Same clinical trial: tolerability; type: in vivo, human; details: 20 mg orally three times a day for 28 days
# Source text: as §1, §2
# [5] = 20 mg orally three times a day for 28 days
# [6] = 7 days after treatment onset [Interim visit: Day 7 + 3]
# [7] = 28 days after treatment onset [end of treatment: Day 29 ± 2]
compound,measurement,setting,value
Clc1ccc([C@@H](OCCN2CCCCC2)c2ccccc2)cc1 (racemic) [Levocloperastine],Sedation,[1],did not induce any clinically relevant sedation
same,Alleviation of vegetative concomitant symptoms versus standard of care,[2]; [5],statistically better in alleviating the vegetative concomitant symptoms than the standard of care treatment
same,"Score of vegetative concomitant symptoms, Absolute data, Mean ± SD",[2]; [6],0.6 ± 0.73
same,"Score of vegetative concomitant symptoms, Change as %",[2]; [6],−46.15%
same,"Score of vegetative concomitant symptoms, Change from baseline, Mean ± SD",[2]; [6],−0.6 ± 0.81
same,"Score of vegetative concomitant symptoms, Absolute data, Mean ± SD",[2]; [7],0.2 ± 0.47
same,"Score of vegetative concomitant symptoms, Change as %",[2]; [7],−84.62%
same,"Score of vegetative concomitant symptoms, Change from baseline, Mean ± SD",[2]; [7],−1.1 ± 0.98
same,"Score of vegetative concomitant symptoms, Absolute data, Mean ± SD",[2]; Baseline,1.3 ± 1.05
same,Duration of treatment for comparable improvement in vegetative concomitant symptoms severity,"[2]; human, in vivo",about 7 days
same,Efficacy on primary efficacy endpoint MVS score versus standard of care,[3]; [5],equally efficacious in comparison to standard of care treatment
same,"MVS Score, Change from baseline, Mean ± SD",[3]; A/28 Days [Day 29 ± 2],−1.1 ± 0.45
same,"MVS Score, Mean ± SD",[3]; A/28 Days [Day 29 ± 2],1.1 ± 0.58
same,"MVS Score, Change as %",[3]; A/28 Days [Day 29 ± 2] vs baseline,−50.00%
same,"MVS Score, Mean ± SD",[3]; Baseline (Day 0/1),2.2 ± 0.29
same,"MVS Score, Change from baseline, Mean ± SD",[3]; Interim visit [Day 7 + 3],−0.7 ± 0.33
same,"MVS Score, Mean ± SD",[3]; Interim visit [Day 7 + 3],1.5 ± 0.49
same,"MVS Score, Change as %",[3]; Interim visit [Day 7 + 3] vs baseline,-31.8%
same,Tolerability,[4],well tolerability in all patients
